These results are taken from patent US20160324916A1, “PROCESS FOR THE SYNCHRONIZATION OF OVULATION FOR TIMED BREEDING WITHOUT HEAT DETECTION” (priority 2003, published 2016).

Experiment [1] relates to postpartum sows. Description: Single timed injection 96 hours post-weaning and single timed insemination without estrus detection in postpartum sows (Example 3). It counts as in vivo, swine. Conditions: 50 mcg in SAIB 96 hours post-weaning, single timed insemination, no estrus detection. The protocol:
Approximately 170 postpartum sows were randomly divided into two equal groups comprised of controls and treated. Following weaning, the controls were detected for estrus and bred following the normal standard operating procedures for the farms on which they resided. The treated sows received a 50 mcg dose of deslorelin in SAIB at 96 hours post-weaning and were bred with a single insemination 28+/−2 hours later with no regard to estrus detection. The sows were examined for pregnancy by ultrasound at 21 days and slaughtered around 28 days post breeding. The entire reproductive tract was removed and corpora lutea and embryos were counted.

Experiment [2] has as its system mature postpartum sows. The experiment can be described thus: Intravulvar injection at estrus detection in mature postpartum sows, AI breeding (Example 2). The settings on record: 50 mcg intravulvar at estrus detection. The experiment is classed as in vivo, swine. The procedure:
Sows were assigned randomly in blocks of two to either control or to be injected intravulvar with 50 mcg of deslorelin in SAIB at the time of estrus detection for sows first detected in estrus in the a.m. and 12 hours later for those first detected in estrus in the p.m. Treated animals were bred AI upon detected estrus and again 24 hours later if still in estrus. Controls received a saline injection on first detected estrus behavior estrus detection and were bred according to the farm's normal procedures.

For the molecule `CCNC(=O)[C@@H]1CCCN1C(=O)[C@H](CCCN=C(N)N)NC(=O)[C@H](CC(C)C)NC(=O)[C@@H](Cc1c[nH]c2ccccc12)NC(=O)[C@H](Cc1ccc(O)cc1)NC(=O)[C@H](CO)NC(=O)[C@H](Cc1c[nH]c2ccccc12)NC(=O)[C@H](Cc1cnc[nH]1)NC(=O)[C@@H]1CCC(=O)N1` [Deslorelin, deslorelin], the “Pregnancy Rate” value in experiment [1] came to 71%. In addition, the “Pregnancy rates, Control versus Treated” value in experiment [2] is “no significant difference”.
